According to ChEMBL document CHEMBL3822364, “Synthesis, characterization and antimicrobial activity of novel Schiff base tethered boronate esters of 1,2-O-isopropylidene-α-d-xylofuranose” (2016):
In brackets after ≈: the same amount, converted by molar mass. Activity calls are given as the source filed them. The calls are words filed in the database; no cut-off is given here.

Experiments:
[1] = tested on: Candida albicans; assay: Antifungal activity against Candida albicans MTCC 3017 assessed as zone of inhibition at 100 ug/well measured after 48 hrs by agar well diffusion method; format: functional; conditions: MTCC 3017, 48 h, read-out: DIZ
[2] = tested on: Candida albicans; assay: Antifungal activity against Candida albicans MTCC 3017 measured after 48 hrs by NCCL protocol based broth dilution method; format: functional; conditions: MTCC 3017, 48 h
[3] = tested on: Klebsiella pneumoniae; assay: Antibacterial activity against Klebsiella pneumoniae MTCC 3384 measured after 24 hrs by NCCL protocol based broth dilution method; format: functional
[4] = tested on: Staphylococcus aureus; assay: Antibacterial activity against Staphylococcus aureus MTCC 3160 measured after 24 hrs by NCCL protocol based broth dilution method; format: functional; conditions: MTCC 3160, 24 h
[5] = tested on: Aspergillus fumigatus; assay: Antifungal activity against Aspergillus fumigatus MTCC 343 assessed as zone of inhibition at 100 ug/well measured after 48 hrs by agar well diffusion method; format: functional; conditions: MTCC 343, 48 h, read-out: DIZ
[6] = tested on: Salmonella typhi; assay: Antibacterial activity against Salmonella typhi assessed as zone of inhibition at 100 ug/well measured after 24 hrs by agar well diffusion method; format: functional, Salmonella enterica subsp. enterica serovar Typhi; conditions: Salmonella enterica, read-out: DIZ
[7] = tested on: Klebsiella pneumoniae; assay: Antibacterial activity against Klebsiella pneumoniae MTCC 3384 assessed as zone of inhibition at 100 ug/well measured after 24 hrs by agar well diffusion method; format: functional; conditions: MTCC 3384, 24 h, read-out: DIZ
[8] = tested on: Streptococcus mutans; assay: Antibacterial activity against Streptococcus mutans MTCC 497 assessed as zone of inhibition at 100 ug/well measured after 24 hrs by agar well diffusion method; format: functional; conditions: MTCC 497, 24 h, read-out: DIZ
[9] = tested on: Salmonella paratyphi; assay: Antibacterial activity against Salmonella paratyphi measured after 24 hrs by NCCL protocol based broth dilution method; format: functional, Salmonella enterica subsp. enterica serovar Paratyphi A
[10] = tested on: Salmonella paratyphi; assay: Antibacterial activity against Salmonella paratyphi assessed as zone of inhibition at 100 ug/well measured after 24 hrs by agar well diffusion method; format: functional, Salmonella enterica subsp. enterica serovar Paratyphi A; conditions: Salmonella enterica, read-out: DIZ
[11] = tested on: Micrococcus luteus; assay: Antibacterial activity against Micrococcus luteus MTCC 106 assessed as zone of inhibition at 100 ug/well measured after 24 hrs by agar well diffusion method; format: functional; conditions: MTCC 106, 24 h, read-out: DIZ
[12] = tested on: Staphylococcus aureus; assay: Antibacterial activity against Staphylococcus aureus MTCC 3160 assessed as zone of inhibition at 100 ug/well measured after 24 hrs by agar well diffusion method; format: functional; conditions: MTCC 3160, 24 h, read-out: DIZ
[13] = tested on: Salmonella typhi; assay: Antibacterial activity against Salmonella typhi measured after 24 hrs by NCCL protocol based broth dilution method; format: functional, Salmonella enterica subsp. enterica serovar Typhi
[14] = tested on: Micrococcus luteus; assay: Antibacterial activity against Micrococcus luteus MTCC 106 measured after 24 hrs by NCCL protocol based broth dilution method; format: functional; conditions: MTCC 106, 24 h
[15] = tested on: Streptococcus mutans; assay: Antibacterial activity against Streptococcus mutans MTCC 497 measured after 24 hrs by NCCL protocol based broth dilution method; format: functional; conditions: MTCC 497, 24 h
[16] = tested on: Aspergillus fumigatus; assay: Antifungal activity against Aspergillus fumigatus MTCC 343 measured after 48 hrs by NCCL protocol based broth dilution method; format: functional

Row | SMILES | zone of inhibition at 100 µg/disc [1] [mm] | MIC [2] [µg/mL] | MIC ([3]; MTCC 3384, 24 h) [µg/mL] | MIC [4] [µg/mL] | zone of inhibition at 100 µg/disc [5] [mm] | zone of inhibition at 100 µg/disc [6] [mm] | zone of inhibition at 100 µg/disc [7] [mm] | zone of inhibition at 100 µg/disc [8] [mm] | MIC ([9]; Salmonella enterica) [µg/mL] | zone of inhibition at 100 µg/disc [10] [mm] | zone of inhibition at 100 µg/disc [11] [mm] | zone of inhibition at 100 µg/disc [12] [mm] | MIC ([13]; Salmonella enterica) [µg/mL] | MIC [14] [µg/mL] | MIC [15] [µg/mL] | MIC ([16]; MTCC 343, 48 h) [µg/mL] | MIC [3] | MIC ([9]; Salmonella enterica subsp. enterica serovar Paratyphi A) | MIC ([13]; Salmonella enterica subsp. enterica serovar Typhi) | MIC [16]
1 | OC(Cn1cncn1)(Cn1cncn1)c1ccc(F)cc1F [FLUCONAZOLE] | 18 | 62.5 (≈ 204 µM) |  |  |  |  |  |  |  |  |  |  |  |  |  |  |  |  |  | 
2 | CC1(C)O[C@H]2O[C@@H]3COB(c4cccc(/N=C/c5ccc6ccccc6c5O)c4)O[C@@H]3[C@H]2O1 | 19 | 62.5 (≈ 140 µM) | 62.5 (≈ 140 µM) | 125 (≈ 281 µM) | 33 | 23 | 19 | 17 | 125 (≈ 281 µM) | 13 | 17 | 13 | 62.5 (≈ 140 µM) | 62.5 (≈ 140 µM) | 125 (≈ 281 µM) | 31.2 (≈ 70.2 µM) |  |  |  | 
3 | OB(O)c1ccc(/C=N/c2ccc(F)cc2)cc1 | 0 | 500 (≈ 2060 µM) | 500 (≈ 2060 µM) | 500 (≈ 2060 µM) | 0 | 9 | 0 | 11 | 500 (≈ 2060 µM) | 0 | 0 | 9 | 500 (≈ 2060 µM) | 500 (≈ 2060 µM) | 250 (≈ 1030 µM) | 500 (≈ 2060 µM) |  |  |  | 
4 | CC(C)c1ccc(/N=C/c2cccc(B3OC[C@H]4O[C@@H]5OC(C)(C)O[C@@H]5[C@H]4O3)c2)cc1 | 16 | 250 (≈ 593 µM) | 125 (≈ 297 µM) | 250 (≈ 593 µM) | 0 | 23 | 16 | 16 | 125 (≈ 297 µM) | 21 | 12 | 13 | 62.5 (≈ 148 µM) | 250 (≈ 593 µM) | 125 (≈ 297 µM) | 500 (≈ 1190 µM) |  |  |  | 
5 | Cc1ccccc1B1OC[C@H]2O[C@@H]3OC(C)(C)O[C@@H]3[C@H]2O1 | 7 | 500 (≈ 1720 µM) | 250 (≈ 862 µM) | 250 (≈ 862 µM) | 6 | 7 | 6 | 9 | 125 (≈ 431 µM) | 6 | 6 | 7 | 250 (≈ 862 µM) | 250 (≈ 862 µM) | 125 (≈ 431 µM) | 500 (≈ 1720 µM) |  |  |  | 
6 | Cc1ccc(/N=C/c2cccc(B3OC[C@H]4O[C@@H]5OC(C)(C)O[C@@H]5[C@H]4O3)c2)cc1 | 17 | 250 (≈ 636 µM) | 125 (≈ 318 µM) | 125 (≈ 318 µM) | 14 | 20 | 20 | 13 | 500 (≈ 1270 µM) | 12 | 12 | 13 | 125 (≈ 318 µM) | 250 (≈ 636 µM) | 250 (≈ 636 µM) | 125 (≈ 318 µM) |  |  |  | 
7 | CC1(C)O[C@H]2O[C@@H]3COC(c4cccc(/C=N/c5ccc(F)cc5)c4)O[C@@H]3[C@H]2O1 (some centres undefined) | 6 | 500 (≈ 1250 µM) |  | 500 (≈ 1250 µM) | 0 | 0 | 0 | 6 |  | 0 | 0 | 7 |  | 500 (≈ 1250 µM) | 250 (≈ 626 µM) |  | inactive | inactive | inactive | inactive
8 | CC1(C)O[C@H]2O[C@@H]3COB(c4ccc(/C=N/c5ccc(Br)cc5)cc4)O[C@@H]3[C@H]2O1 | 19 | 62.5 (≈ 136 µM) | 62.5 (≈ 136 µM) | 125 (≈ 273 µM) | 16 | 22 | 17 | 17 | 15.6 (≈ 34.1 µM) | 24 | 13 | 15 | 62.5 (≈ 136 µM) | 250 (≈ 546 µM) | 62.5 (≈ 136 µM) | 125 (≈ 273 µM) |  |  |  | 
9 | Cc1ccc(/N=C/c2ccc(B3OC[C@H]4O[C@@H]5OC(C)(C)O[C@@H]5[C@H]4O3)cc2)cc1 | 12 | 250 (≈ 636 µM) | 62.5 (≈ 159 µM) | 125 (≈ 318 µM) | 0 | 18 | 24 | 17 | 500 (≈ 1270 µM) | 0 | 12 | 17 | 125 (≈ 318 µM) | 125 (≈ 318 µM) | 125 (≈ 318 µM) | 500 (≈ 1270 µM) |  |  |  | 
10 | C[C@@H]1C[C@@H]([C@H](O)CC2CC(=O)NC(=O)C2)C(=O)[C@@H](C)C1 [CYCLOHEXIMIDE] |  |  |  |  | 25 |  |  |  |  |  |  |  |  |  |  | 125 (≈ 444 µM) |  |  |  | 
11 | CN[C@@H]1[C@H](O[C@H]2[C@H](O[C@H]3[C@H](O)[C@@H](O)[C@H](N=C(N)N)[C@@H](O)[C@@H]3N=C(N)N)O[C@@H](C)[C@]2(O)C=O)O[C@@H](CO)[C@H](O)[C@H]1O.CN[C@@H]1[C@H](O[C@H]2[C@H](O[C@H]3[C@H](O)[C@@H](O)[C@H](N=C(N)N)[C@@H](O)[C@@H]3N=C(N)N)O[C@@H](C)[C@]2(O)C=O)O[C@@H](CO)[C@H](O)[C@H]1O.O=S(=O)(O)O.O=S(=O)(O)O.O=S(=O)(O)O [STREPTOMYCIN SULFATE] |  |  | 31.2 | 15.6 |  | 25 | 25 | 26 | 15.6 | 23 | 20 | 26 | 31.2 | 31.2 | 31.2 |  |  |  |  | 
